In patent publication US20250241926A1, “HETEROCYCLIC COMPOUNDS FOR USE IN THE TREATMENT OF CANCER” (ARTIOS PHARMA LIMITED, priority 2021, published 2025):

Molecular target: T1, Human Polθ polymerase domain (aa1820-2590) (Homo sapiens, UniProt O75417)
T1 construct: Human Polθ polymerase domain (aa1820-2590) was expressed in E. Coli; made in house; host or cells: E. coli
T1 sequence (O75417 1820-2590): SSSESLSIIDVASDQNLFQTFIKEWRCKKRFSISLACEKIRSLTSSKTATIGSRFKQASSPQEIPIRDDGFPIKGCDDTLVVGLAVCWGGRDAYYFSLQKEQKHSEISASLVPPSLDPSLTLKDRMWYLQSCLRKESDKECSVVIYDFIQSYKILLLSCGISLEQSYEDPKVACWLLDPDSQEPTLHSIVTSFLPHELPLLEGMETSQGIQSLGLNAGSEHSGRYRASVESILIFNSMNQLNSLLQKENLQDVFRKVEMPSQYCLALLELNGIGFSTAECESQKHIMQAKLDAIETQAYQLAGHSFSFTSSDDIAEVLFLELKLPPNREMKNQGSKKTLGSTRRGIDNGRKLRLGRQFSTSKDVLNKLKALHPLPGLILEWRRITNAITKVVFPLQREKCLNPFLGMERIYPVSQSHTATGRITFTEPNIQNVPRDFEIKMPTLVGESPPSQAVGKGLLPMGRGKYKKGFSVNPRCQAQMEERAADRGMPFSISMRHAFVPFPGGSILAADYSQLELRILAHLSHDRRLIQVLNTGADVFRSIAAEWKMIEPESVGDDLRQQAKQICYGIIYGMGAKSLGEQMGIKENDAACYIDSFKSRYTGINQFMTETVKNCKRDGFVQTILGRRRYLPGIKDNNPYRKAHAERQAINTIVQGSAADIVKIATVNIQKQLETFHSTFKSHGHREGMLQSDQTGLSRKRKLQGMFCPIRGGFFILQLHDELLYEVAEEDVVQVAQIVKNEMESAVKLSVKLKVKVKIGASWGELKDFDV
Assay: Polθ Polymerase Domain Kinact/Kl Assay (PicoGreen)
Assay type: biochemical
Conditions: covalent inhibitors, kobs vs [I] fit, 0.8 nM Polθ, 100 nM DNA substrate
Summary of the method: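 E. coli-expressed enzyme (0.8 nM final) was run with 100 nM annealed DNA substrate and dNTPs in Tris pH 7.5 buffer (1% DMSO), with EDTA stops across a time course up to 60 min. Synthesised DNA was read by PicoGreen fluorescence. kobs per inhibitor concentration was fitted from the time courses, and Kinact and KI came from the kobs-vs-[I] plot.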

Question: “2-(((S)-6-(2-((R)-4-(1- Acryloylazetidin-3-yl)-2- methylpiperazin-1-yl)eth- yl)-7-fluoro-1-methyl-2- oxo-1,2,3,4,5,6-hexahydro- benzo[b][1,4]diazocin-3- yl)amino)-6-methyl-4- (trifluoromethyl)nicotino- nitrile [Example 15]” was tested. Which kinact/KI did it give?
Answer: 280000 M⁻¹ s⁻¹

Question: Which kinact/KI does the source give for “(S,E)-2-((6-(2-(2- (4-(Dimethyl- amino)but-2-eno- yl)-5-methyl-7- oxo-2,5,8-triaza- spiro[3.5]nonan-8- yl)ethyl)-7-fluoro- 1-methyl-2-oxo- 1,2,3,4,5,6-hexa- hydrobenzo[b] [1,4]diazocin-3- yl)amino)-6-meth- yl-4-(trifluoro- methyl)nicotino- nitrile [Example 46]” here?
Answer: 560000 M⁻¹ s⁻¹

Question: How did the kinact/KI turn out when `C=CC(=O)N1CCN(CC(O)CN2CC[C@H](Nc3nc(C)cc(C(F)(F)F)c3C#N)C(=O)N(C)c3ccc(F)cc32)CC1` (mixture of isomers) [Example 33A, 2-(((S)-6-((S/R)-3-(4-Acryloylpiperazin-1-yl)-2-hydroxypropyl)-8-fluoro-1-methyl-2-oxo-1,2,3,4,5,6-hexahydrobenzo[b][1,4]diazocin-3-yl)amino)-6-methyl-4-(trifluoromethyl)nicotinonitrile] was run?
Answer: 150000 M⁻¹ s⁻¹

Question: How did the kinact/KI turn out when `Cc1cc(C(F)(F)F)c(C#N)c(N[C@H]2CCN(CC(O)CN3CCN(C(=O)/C=C/CN(C)C)CC3)c3c(F)cccc3N(C)C2=O)n1` (mixture of isomers) [Example 32A, 2-(((S)-6-((S/R)-3-(4-((E)-4-(Dimethylamino)but-2-enoyl)piperazin-1-yl)-2-hydroxypropyl)-7-fluoro-1-methyl-2-oxo-1,2,3,4,5,6-hexahydrobenzo[b][1,4]diazocin-3-yl)amino)-6-methyl-4-(trifluoromethyl)nicotinonitrile] was run?
Answer: 770000 M⁻¹ s⁻¹

Same assay, conditions: covalent inhibitors, kobs vs [I] fit, 0.8 nM Polθ, 100 nM DNA substrate, read-out: Kinact/KI

Question: How did the kinact/KI turn out when `Cc1cc(C(F)(F)F)c(C#N)c(N[C@H]2CCN(CCCOC3CN(C(=O)/C=C/CN(C)C)C3)c3c(Cl)cccc3N(C)C2=O)n1` [Example 44, (S,E)-2-((7-Chloro-6-(3-((1-(4-(dimethylamino)but-2-enoyl)azetidin-3-yl)oxy)propyl)-1-methyl-2-oxo-1,2,3,4,5,6-hexahydrobenzo[b][1,4]diazocin-3-yl)amino)-6-methyl-4-(trifluoromethyl)nicotinonitrile] was run?
Answer: 1.3e+06 M⁻¹ s⁻¹

Question: How did the kinact/KI turn out when `C=CC(=O)N1CC(N2CCN(CCN3CC[C@H](Nc4nc(C)cc(C(F)(F)F)c4C#N)C(=O)N(C)c4cccc(F)c43)C[C@H]2C)C1` [Example 16, 2-(((S)-6-(2-((R)-4-(1-Acryloylazetidin-3-yl)-3-methylpiperazin-1-yl)-ethyl)-7-fluoro-1-methyl-2-oxo-1,2,3,4,5,6-hexa-hydrobenzo[b][1,4]diazocin-3-yl)amino)-6-methyl-4-(trifluorometh-yl)nicotinonitrile] was run?
Answer: 540000 M⁻¹ s⁻¹

Question: For `C=CC(=O)N1CC2(CN(CC(O)CN3CC[C@H](Nc4nc(C)cc(C(F)(F)F)c4C#N)C(=O)N(C)c4ccccc43)C2)C1` (stereo partly drawn) [Example 36, 2-(((3S)-6-(3-(6-Acryloyl-2,6-diazaspiro[3.3]heptan-2-yl)-2-hydroxypropyl)-1-methyl-2-oxo-1,2,3,4,5,6-hexahydrobenzo[b][1,4]diazocin-3-yl)amino)-6-methyl-4-(trifluoromethyl)nicotinonitrile], which kinact/KI is on record?
Answer: 360000 M⁻¹ s⁻¹

Question: Which kinact/KI does the source give for `Cc1cc(C(F)(F)F)c(C#N)c(N[C@H]2CCN(C[C@@H]3CN(C4CN(C(=O)/C=C/CN(C)C)C4)CCO3)c3c(F)cccc3N(C)C2=O)n1` [Example 59, 2-(((S)-6-(((S)-4-(1-((E)-4-(Dimethylamino)but-2-enoyl)azetidin-3-yl)morpholin-2-yl)methyl)-7-fluoro-1-methyl-2-oxo-1,2,3,4,5,6-hexahydrobenzo[b][1,4]diazocin-3-yl)amino)-6-methyl-4-(trifluoromethyl)nicotinonitrile] here?
Answer: 120000 M⁻¹ s⁻¹

Question: Which kinact/KI does the source give for `C#CCN1CCN(CCN2CC[C@H](Nc3nc(C)cc(C(F)(F)F)c3C#N)C(=O)N(C)c3cccc(F)c32)CC12CN(C(=O)C=C)C2` [Example 25, (S)-2-((6-(2-(2-Acryloyl-5-(prop-2-yn-1-yl)-2,5,8-triazaspiro[3.5]nonan-8-yl)ethyl)-7-fluoro-1-methyl-2-oxo-1,2,3,4,5,6-hexahydrobenzo[b][1,4]diazocin-3-yl)amino)-6-methyl-4-(trifluoromethyl)nicotinonitrile] here?
Answer: 1.6e+06 M⁻¹ s⁻¹

Question: With `C=CC(=O)N1CC(n2cnc(CN3CC[C@H](Nc4nc(C)cc(C(F)(F)F)c4C#N)C(=O)N(C)c4cccc(F)c43)n2)C1` [Example 66, (S)-2-((6-((1-(1-Acryloylazetidin-3-yl)-1H-1,2,4-triazol-3-yl)methyl)-7-fluoro-1-methyl-2-oxo-1,2,3,4,5,6-hexahydrobenzo[b][1,4]diazocin-3-yl)amino)-6-methyl-4-(trifluoromethyl)nicotinonitrile] as the molecule, how does the kinact/KI read?
Answer: 2.4e+06 M⁻¹ s⁻¹

Question: For `C=CC(=O)N1CC(OCCCN2CC[C@H](Nc3nc(C)cc(C(F)(F)F)c3C#N)C(=O)N(C)c3ccccc32)C1` [Example 53, (S)-2-((6-(3-((1-Acryloylazetidin-3-yl)oxy)propyl)-1-methyl-2-oxo-1,2,3,4,5,6-hexahydrobenzo[b][1,4]diazocin-3-yl)amino)-6-methyl-4-(trifluoromethyl)nicotinonitrile], which kinact/KI is on record?
Answer: 500000 M⁻¹ s⁻¹

Question: Which kinact/KI does the source give for `Cc1cc(C(F)(F)F)c(C#N)c(N[C@H]2CCN(CC(O)CN3CCN(C(=O)/C=C/CN(C)C)CC3)c3cc(F)ccc3N(C)C2=O)n1` (single isomer, unassigned) [Example 34B] here?
Answer: 680000 M⁻¹ s⁻¹

Question: For `C=CC(=O)N1CC2(CN(CCN3CC[C@H](Nc4nc(C)cc(C(F)(F)F)c4C#N)C(=O)N(C)c4cccc(F)c43)CCN2C)C1` [Example 6, (S)-2-((6-(2-(2-Acryloyl-5-methyl-2,5,8-triazaspiro[3.5]nonan-8-yl)ethyl)-7-fluoro-1-methyl-2-oxo-1,2,3,4,5,6-hexahydrobenzo[b][1,4]diazocin-3-yl)amino)-6-methyl-4-(trifluoromethyl)nicotinonitrile], which kinact/KI is on record?
Answer: 980000 M⁻¹ s⁻¹

Question: For `C#CCN(C)C/C=C/C(=O)N1CC(OCCCN2CC[C@H](Nc3nc(C)cc(C(F)(F)F)c3C#N)C(=O)N(C)c3cccc(F)c32)C1` [Example 57, (S,E)-2-((7-Fluoro-1-methyl-6-(3-((1-(4-(methyl(prop-2-yn-1-yl)amino)but-2-enoyl)azetidin-3-yl)oxy)propyl)-2-oxo-1,2,3,4,5,6-hexahydrobenzo[b][1,4]diazocin-3-yl)amino)-6-methyl-4-(trifluoromethyl)nicotinonitrile], which kinact/KI is on record?
Answer: 300000 M⁻¹ s⁻¹

Question: For `C=CC(=O)N1CC(OCCN2CC[C@H](Nc3nc(C)cc(C(F)(F)F)c3C#N)C(=O)N(C)c3ccccc32)C1` [Example 51, (S)-2-((6-(2-((1-Acryloylazetidin-3-yl)oxy)ethyl)-1-methyl-2-oxo-1,2,3,4,5,6-hexahydrobenzo[b][1,4]diazocin-3-yl)amino)-6-methyl-4-(trifluoromethyl)nicotinonitrile], which kinact/KI is on record?
Answer: 70000 M⁻¹ s⁻¹

Question: `Cc1cc(C(F)(F)F)c(C#N)c(N[C@H]2CCN(CCCOC3CN(C(=O)/C=C/CN(C)C)C3)c3cc(F)ccc3N(C)C2=O)n1` [Example 42, (S,E)-2-((6-(3-((1-(4-(Dimethylamino)but-2-enoyl)azetidin-3-yl)oxy)propyl)-8-fluoro-1-methyl-2-oxo-1,2,3,4,5,6-hexahydrobenzo[b][1,4]diazocin-3-yl)amino)-6-methyl-4-(trifluoromethyl)nicotinonitrile] was tested. Which kinact/KI did it give?
Answer: 820000 M⁻¹ s⁻¹

Question: How did the kinact/KI turn out when `C=CC(=O)N1CC(N2CCN(CCN3CC[C@H](Nc4nc(C)cc(C(F)(F)F)c4C#N)C(=O)N(C)c4ccccc43)CC2)C1` [Example 20, (S)-2-((6-(2-(4-(1-Acrylo-ylazetidin-3-yl)piperazin-1-yl)ethyl)-1-methyl-2-oxo-1,2,3,4,5,6-hexa-hydrobenzo[b][1,4]diazocin-3-yl)amino)-6-methyl-4-(trifluorometh-yl)nicotinonitrile] was run?
Answer: 500000 M⁻¹ s⁻¹

Question: How did the kinact/KI turn out when `CO[C@H]1CN(C(=O)/C=C/CN(C)C)C[C@@H]1C(=O)N(C)CCN1CC[C@H](Nc2nc(C)cc(C(F)(F)F)c2C#N)C(=O)N(C)c2cccc(F)c21` (relative stereo) [Example 28, (rel-3S,4R)—N-(2-((S)-4-((3-Cyano-6-methyl-4-(trifluoromethyl)pyridin-2-yl)amino)-10-fluoro-6-methyl-5-oxo-3,4,5,6-tetrahydrobenzo[b][1,4]diazocin-1(2H)-yl)ethyl)-1-((E)-4-(dimethylamino)but-2-enoyl)-4-methoxy-N-methylpyrrolidine-3-carboxamide] was run?
Answer: 560000 M⁻¹ s⁻¹
